Key:
FXR = molecular target: T1, FXR (Homo sapiens, UniProt Q96RI1); assay: NR selectivity one-hybrid assay in HEK-293T cells (FXR); format: cell-based; details: FXR agonist CDCA (50 μM)
T1 construct: a fusion plasmid of Gal4 DBD-NR-LBD, which included PPARα, PPARβ, PPARγ, RXRα, RXRβ, RXRγ, LXRα, LXRβ, GPBAR, PXR, and FXR; expressed in transfected cells; host or cells: HEK-293T
T1 sequence (Q96RI1 262-486 limits assumed): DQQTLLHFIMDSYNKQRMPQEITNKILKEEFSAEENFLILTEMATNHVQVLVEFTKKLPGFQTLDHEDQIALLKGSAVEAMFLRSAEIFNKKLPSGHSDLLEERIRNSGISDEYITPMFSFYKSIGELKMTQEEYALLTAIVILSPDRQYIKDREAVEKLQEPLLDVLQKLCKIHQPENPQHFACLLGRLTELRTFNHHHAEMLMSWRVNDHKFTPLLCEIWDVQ
Method: (§1) To assess the compound’s specificity, the mammalian one-hybrid assay was conducted. In this assay, HEK-293T cells were co-transfected with a fusion plasmid of Gal4 DBD-NR LBD (comprising RXRα, RXRβ, RXRγ, PPARα, PPARβ, PPARγ, LXRα, LXRβ, GPBAR, and PXR) and the UAS-TK-Luc reporter, followed by treatment with various concentrations of the compound. The positive control consisted of the corresponding nuclear receptor agonist, and the concentration used in the experiment was set to the EC50 of the agonist.
(§2) Figure 3 Compound 10b selectively antagonized FXR. The impact of compound 10b on various NRs was evaluated using a […] one-hybrid assay in HEK-293T cells. The cells were transiently co-transfected with a fusion plasmid of Gal4 DBD-NR-LBD, which included PPARα, PPARβ, PPARγ, RXRα, RXRβ, RXRγ, LXRα, LXRβ, GPBAR, PXR, and FXR, in combination with the UAS-TK-Luc reporter. […] The values are expressed as the means ± SE of three independent experiments. *: p < 0.05 vs. RA (relative agonist).

FXR downstream genes = assay: mRNA expression of FXR downstream genes in HepG2 cells (qRT-PCR); format: cell-based; details: 10 μM and 1 μM, 24 h
Method: (§3) Cells and liver tissue samples were subjected to RNA extraction and purification, followed by reverse transcription of equal amounts of total RNA into […] using a Transcriptor First Strand cDNA Synthesis Kit (Roche). The relative expression levels of the target gene were determined using TaqMan probe/primers with an ABI Q3 quantitative real-time PCR system, while GAPDH/Gapdh was utilized as an internal control for mRNA expression. The fold change in the expression of the target mRNA was calculated using Equation 2^−ΔΔCt.
(A) Relative mRNA level of SHP; (B) Relative mRNA level of BSEP; (C) Relative mRNA level of CYP7A1; (D) Relative mRNA level of SREBP1c; (E) Relative mRNA level of PEPCK; (F) Expression level of G6Pase. HepG2 cells were seeded in a 6-well plate and treated with DMSO and varying concentrations of compound 10b for 24 h with or without 50 μM of 1. The mRNA levels of SHP, BSEP, CYP7A1, SREBP1c, PEPCK, and G6Pase were quantified and normalized to β-actin expression.

BDL rats = assay: Bile duct ligation (BDL) rat model; format: in vivo; details: 100 mg·kg-1 oral, 14 days
Method: as §3
The study involved 24 rats that were randomly assigned to 1 of 3 groups, including sham, BDL-N.S., and BDL-10b-100mg·kg^−1, ensuring 8 animals per group using Research Randomizer (RRID: SCR_008563). Of the 24 rats, 16 underwent BDL surgery, wherein the choledochal duct was ligated with surgical sutures after administering isoflurane anesthesia. After 24 h, the BDL rats were randomly divided into […] and received daily gavages of either normal saline (BDL-NS group) or 100 mg·kg^−1 of compound 10b suspended in 0.5% sodium carboxymethylcellulose solution (BDL-10b groups) for 14 days. A healthy control group was established with eight rats undergoing sham surgery. Bodyweights were measured daily, and blood samples were collected from the abdominal aorta after an overnight fast. Euthanasia was performed using isoflurane, following which bile was collected using a syringe, and liver tissue samples were collected. Some of the samples were fixed with 4% paraformaldehyde for subsequent histological examination, while others were stored at −80 °C for further analysis.
Kits purchased from Zhongsheng Beikong Biotechnology (Beijing, China) were used to measure the serum concentrations of alanine aminotransferase, aspartate aminotransferase, alkaline phosphatase, γ-glutamyl transpeptidase, total cholesterol, total triglyceride, low-density lipoprotein (LDL), high-density lipoprotein (HDL) cholesterol, lactate dehydrogenase, total bile acid, and total bilirubin. The samples were analyzed on a Hitachi 7100 Analyzer.
The liver tissue was fixed with formalin, embedded in paraffin, and sectioned. The sections were stained with H&E, Oil Red, Masson’s, and Sirius Red. Liver necrosis, inflammation, bile duct proliferation, hepatic steatosis, and lobule inflammation were evaluated on a scale of 1–5 in a blinded manner using a Leica DM1000 microscope. Five randomly selected manifold area fields of vision were used to quantify the red area in each field of vision (eight in each group), which was counted using ImageJ software. The liver hydroxyproline concentration was determined using kits from Nanjing, China, in accordance with the manufacturer’s instructions.

PPARα = molecular target: T2, PPARα (Homo sapiens, UniProt Q07869); assay: NR selectivity one-hybrid assay in HEK-293T cells (PPARα); format: cell-based; details: activated by fenofibrate
T2 construct: a fusion plasmid of Gal4 DBD-NR LBD (comprising RXRα, RXRβ, RXRγ, PPARα, PPARβ, PPARγ, LXRα, LXRβ, GPBAR, and PXR); expressed in transfected cells; host or cells: HEK-293T
T2 sequence (Q07869 239-466 limits assumed): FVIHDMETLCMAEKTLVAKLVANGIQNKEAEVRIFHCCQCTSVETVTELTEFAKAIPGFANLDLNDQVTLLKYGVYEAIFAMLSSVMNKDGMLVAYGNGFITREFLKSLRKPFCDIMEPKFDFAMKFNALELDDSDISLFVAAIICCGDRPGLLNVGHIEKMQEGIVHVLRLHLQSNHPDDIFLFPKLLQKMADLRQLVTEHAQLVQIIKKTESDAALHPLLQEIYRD
Method: as §1, §2

[1] = in the presence and absence of compound 1 (50 μM)

With `CC1(C)CCC2(C(=O)O)CCC3(C)C(C(OC(=O)CCC(NC(=O)OC(C)(C)C)C(=O)OC(C)(C)C)CC4C5(C)CCC(O)C(C)(C)C5CCC43C)C2C1` [Compound 10b, 3β-hydroxy-12β-(4′-((tert-butoxycarbonyl)amide)-5′-(tert-butoxy)-L-glutamte)oxy-13H-olean-28-oic acid] the “antagonistic effects against FXR” value (FXR) was greater than 90%, the “expression of G6Pase (mRNA)” value (FXR downstream genes) was “inhibited the expression” and the “expression of PEPCK (mRNA)” value (FXR downstream genes) was “inhibited the expression”. The “expression of BSEP (mRNA)” value (FXR downstream genes; [1]) was “inhibit”, the “expression of CYP7A1 (mRNA)” value (FXR downstream genes; [1]) was “increasing the expression” and the “expression of SHP (mRNA)” value (FXR downstream genes; [1]) was “inhibit”. The “expression of SREBP1c (mRNA)” value (FXR downstream genes; [1]) was “inhibit”, the “Bile TBA” value (BDL rats) was 249.4 ± 103.67 µmol/L and the “Bile TBiL” value (BDL rats) was 5.8 ± 2.46 µmol/L. For the same compound, the “Serum ALP” value (BDL rats) was 391.33±52.42 U·L-1, the “Serum HDL” value (BDL rats) was 0.29 ± 0.06 mmol/L and the “Serum LDL” value (BDL rats) was 1.06 ± 0.22 mmol/L. For the same compound, the “Serum γ-GT” value (BDL rats) was 37.5±6.74 U·L-1, the “Urine TBA” value (BDL rats) was 15.38 ± 5.76 µmol/L and the “Urine TBiL” value (BDL rats) was 5.33 ± 1.50 µmol/L. The “expression of fibrogenic genes Col1a1, Acta2, Tgfb1, Mmp2, Timp1, Itgav, Ctgf in rat liver (qRT-PCR)” value (BDL rats) was “reduced”, the “liver collagen accumulation (Sirius red staining)” value (BDL rats) was “significantly attenuated” and the “pathological impairments (bile duct hyperplasia, parenchymal necrosis, inflammation; H&E)” value (BDL rats) was “substantially reduced”. For the same compound, the “liver necrosis scores (blinded assessment)” value (BDL rats; vs BDL rats) was “significantly lower” and the “antagonistic effects against PPARα” value (PPARα) was 10–20%.
